According to ChEMBL document CHEMBL2086385, “Synthesis and antimicrobial evaluation of L-phenylalanine-derived C5-substituted rhodanine and chalcone derivatives containing thiobarbituric acid or 2-thioxo-4-thiazolidinone” (2012):
Converted amounts (≈) assume the structure as drawn.

Key:
Format in all cases: functional
Staphylococcus aureus [1] = assay: Antibacterial activity against Staphylococcus aureus KCTC 209 after 24 hrs by broth microdilution method; conditions: KCTC 209, 24 h
Staphylococcus aureus [2] = assay: Antibacterial activity against Staphylococcus aureus KCTC 503 after 24 hrs by broth microdilution method; conditions: KCTC 503, 24 h
Staphylococcus aureus [3] = assay: Antibacterial activity against Staphylococcus aureus RN4220 after 24 hrs by broth microdilution method; conditions: RN4220, 24 h
Escherichia coli = assay: Antibacterial activity against Escherichia coli CCARM 1356 after 24 hrs by broth microdilution method; conditions: CCARM 1356, 24 h
Staphylococcus aureus [4] = assay: Antibacterial activity against methicillin-resistant Staphylococcus aureus CCARM 3167 clinical isolate after 24 hrs by broth microdilution method; conditions: CCARM 3167, 24 h
Staphylococcus aureus [5] = assay: Antibacterial activity against methicillin-resistant Staphylococcus aureus CCARM 3506 clinical isolate after 24 hrs by broth microdilution method; conditions: CCARM 3506, 24 h
Staphylococcus aureus [6] = assay: Antibacterial activity against quinolone-resistant Staphylococcus aureus CCARM 3505 clinical isolate after 24 hrs by broth microdilution method; conditions: CCARM 3505, 24 h
Staphylococcus aureus [7] = assay: Antibacterial activity against quinolone-resistant Staphylococcus aureus CCARM 3519 clinical isolate after 24 hrs by broth microdilution method; conditions: CCARM 3519, 24 h
Staphylococcus aureus [8] = assay: Ratio of norfloxacin MIC to compound MIC for methicillin-resistant Staphylococcus aureus CCARM 3167 clinical isolate
Staphylococcus aureus [9] = assay: Ratio of norfloxacin MIC to compound MIC for methicillin-resistant Staphylococcus aureus CCARM 3506 clinical isolate
Staphylococcus aureus [10] = assay: Ratio of norfloxacin MIC to compound MIC for quinolone-resistant Staphylococcus aureus CCARM 3505 clinical isolate
Staphylococcus aureus [11] = assay: Ratio of norfloxacin MIC to compound MIC for quinolone-resistant Staphylococcus aureus CCARM 3519 clinical isolate

Structure (SMILES) | MIC (Staphylococcus aureus [1]) [µg/mL] | MIC (Staphylococcus aureus [2]) [µg/mL] | MIC (Staphylococcus aureus [3]) [µg/mL] | MIC (Escherichia coli) [µg/mL] | MIC (Staphylococcus aureus [4]) [µg/mL] | MIC (Staphylococcus aureus [5]) [µg/mL] | MIC (Staphylococcus aureus [6]) [µg/mL] | MIC (Staphylococcus aureus [7]) [µg/mL] | Ratio (Staphylococcus aureus [8]) | Ratio (Staphylococcus aureus [9]) | Ratio (Staphylococcus aureus [10]) | Ratio (Staphylococcus aureus [11])
O=Cc1ccc(/C=C/C(=O)c2ccc3ccccc3c2)cc1 | > 64 | > 64 | > 64 | > 64 | > 64 | > 64 | > 64 | > 64 | – | – | – | –
O=C(/C=C/c1ccc(/C=C2\SC(=S)N([C@@H](Cc3ccccc3)C(=O)O)C2=O)cc1)c1ccccc1F | 16 (≈ 30.9 µM) | 16 (≈ 30.9 µM) | 4 (≈ 7.73 µM) | > 64 | 4 (≈ 7.73 µM) | 4 (≈ 7.73 µM) | 8 (≈ 15.5 µM) | 8 (≈ 15.5 µM) | 2 | 2 | 2 | 2
O=C(/C=C/c1ccc(/C=C2\SC(=S)N([C@@H](Cc3ccccc3)C(=O)O)C2=O)cc1)c1ccc(F)cc1 | 16 (≈ 30.9 µM) | 16 (≈ 30.9 µM) | 4 (≈ 7.73 µM) | > 64 | 4 (≈ 7.73 µM) | 4 (≈ 7.73 µM) | 8 (≈ 15.5 µM) | 8 (≈ 15.5 µM) | 2 | 2 | 2 | 2
O=C(/C=C/c1ccc(/C=C2\SC(=S)N([C@@H](Cc3ccccc3)C(=O)O)C2=O)cc1)c1ccccc1Cl | 16 (≈ 30 µM) | 16 (≈ 30 µM) | 2 (≈ 3.74 µM) | > 64 | 2 (≈ 3.74 µM) | 4 (≈ 7.49 µM) | 4 (≈ 7.49 µM) | 4 (≈ 7.49 µM) | 2 | 2 | 2 | 2
O=C(/C=C/c1ccc(/C=C2\SC(=S)N([C@@H](Cc3ccccc3)C(=O)O)C2=O)cc1)c1cccc(Cl)c1 | 16 (≈ 30 µM) | 16 (≈ 30 µM) | 2 (≈ 3.74 µM) | > 64 | 2 (≈ 3.74 µM) | 4 (≈ 7.49 µM) | 8 (≈ 15 µM) | 8 (≈ 15 µM) | 2 | 2 | 2 | 2
O=C(/C=C/c1ccc(/C=C2\SC(=S)N([C@@H](Cc3ccccc3)C(=O)O)C2=O)cc1)c1ccc(Cl)cc1 | 8 (≈ 15 µM) | 8 (≈ 15 µM) | 2 (≈ 3.74 µM) | > 64 | 2 (≈ 3.74 µM) | 4 (≈ 7.49 µM) | 4 (≈ 7.49 µM) | 4 (≈ 7.49 µM) | 2 | 2 | 2 | 2
O=C(/C=C/c1ccc(/C=C2\SC(=S)N([C@@H](Cc3ccccc3)C(=O)O)C2=O)cc1)c1ccc(Cl)cc1Cl | 16 (≈ 28.1 µM) | 16 (≈ 28.1 µM) | 4 (≈ 7.04 µM) | > 64 | 4 (≈ 7.04 µM) | 4 (≈ 7.04 µM) | 4 (≈ 7.04 µM) | 16 (≈ 28.1 µM) | 2 | 2 | 2 | 2
O=C(/C=C/c1ccc(/C=C2\SC(=S)N([C@@H](Cc3ccccc3)C(=O)O)C2=O)cc1)c1ccccc1Br | 16 (≈ 27.7 µM) | 16 (≈ 27.7 µM) | 2 (≈ 3.46 µM) | > 64 | 2 (≈ 3.46 µM) | 4 (≈ 6.91 µM) | 4 (≈ 6.91 µM) | 4 (≈ 6.91 µM) | 2 | 2 | 2 | 2
O=C(/C=C/c1ccc(/C=C2\SC(=S)N([C@@H](Cc3ccccc3)C(=O)O)C2=O)cc1)c1cccc(Br)c1 | 16 (≈ 27.7 µM) | 16 (≈ 27.7 µM) | 8 (≈ 13.8 µM) | > 64 | 8 (≈ 13.8 µM) | 8 (≈ 13.8 µM) | 8 (≈ 13.8 µM) | 16 (≈ 27.7 µM) | 2 | 2 | 2 | 2
O=Cc1ccc(OCc2cccc(F)c2)cc1 | > 64 | > 64 | > 64 | > 64 | > 64 | > 64 | > 64 | > 64 | – | – | – | –
O=Cc1ccc(OCc2ccc(F)cc2)cc1 | > 64 | > 64 | > 64 | > 64 | > 64 | > 64 | > 64 | > 64 | – | – | – | –
O=Cc1ccc(OCc2ccccc2Cl)cc1 | > 64 | > 64 | > 64 | > 64 | > 64 | > 64 | > 64 | > 64 | – | – | – | –
O=Cc1ccc(OCc2cccc(Cl)c2)cc1 | > 64 | > 64 | > 64 | > 64 | > 64 | > 64 | > 64 | > 64 | – | – | – | –
O=Cc1ccc(OCc2ccc(Cl)cc2)cc1 | > 64 | > 64 | > 64 | > 64 | > 64 | > 64 | > 64 | > 64 | – | – | – | –
O=Cc1ccc(OCc2ccc(Cl)cc2Cl)cc1 | > 64 | > 64 | > 64 | > 64 | > 64 | > 64 | > 64 | > 64 | – | – | – | –
O=Cc1ccc(OCc2cccc(Br)c2)cc1 | > 64 | > 64 | > 64 | > 64 | > 64 | > 64 | > 64 | > 64 | – | – | – | –

Structure (SMILES) | MIC (Staphylococcus aureus [1]) [µg/mL] | MIC (Staphylococcus aureus [2]) [µg/mL] | MIC (Staphylococcus aureus [3]) [µg/mL] | MIC (Escherichia coli) [µg/mL] | MIC (Staphylococcus aureus [4]) [µg/mL] | MIC (Staphylococcus aureus [5]) [µg/mL] | MIC (Staphylococcus aureus [6]) [µg/mL] | MIC (Staphylococcus aureus [7]) [µg/mL] | Ratio (Staphylococcus aureus [8]) | Ratio (Staphylococcus aureus [9]) | Ratio (Staphylococcus aureus [10]) | Ratio (Staphylococcus aureus [11])
O=Cc1ccc(OCc2ccc(Br)cc2)cc1 | > 64 | > 64 | > 64 | > 64 | > 64 | > 64 | > 64 | > 64 | – | – | – | –
Cc1ccc(COc2ccc(C=O)cc2)cc1 | > 64 | > 64 | > 64 | > 64 | > 64 | > 64 | > 64 | > 64 | – | – | – | –
O=C1NC(=S)NC(=O)C1=Cc1ccc(/C=C/C(=O)c2ccccc2F)cc1 | > 64 | > 64 | > 64 | > 64 | > 64 | > 64 | > 64 | > 64 | – | – | – | –
O=C1NC(=S)NC(=O)C1=Cc1ccc(/C=C/C(=O)c2ccc(F)cc2)cc1 | > 64 | > 64 | > 64 | > 64 | > 64 | > 64 | > 64 | > 64 | – | – | – | –
O=C1NC(=S)NC(=O)C1=Cc1ccc(/C=C/C(=O)c2ccccc2Cl)cc1 | > 64 | > 64 | > 64 | > 64 | > 64 | > 64 | > 64 | > 64 | – | – | – | –
O=C1NC(=S)NC(=O)C1=Cc1ccc(/C=C/C(=O)c2cccc(Cl)c2)cc1 | > 64 | > 64 | > 64 | > 64 | > 64 | > 64 | > 64 | > 64 | – | – | – | –
O=C1NC(=S)NC(=O)C1=Cc1ccc(/C=C/C(=O)c2ccc(Cl)cc2)cc1 | > 64 | > 64 | > 64 | > 64 | > 64 | > 64 | > 64 | > 64 | – | – | – | –
O=C1NC(=S)S/C1=C/c1ccc(/C=C/C(=O)c2ccccc2F)cc1 | > 64 | > 64 | > 64 | > 64 | > 64 | > 64 | > 64 | > 64 | – | – | – | –
O=C1NC(=S)S/C1=C/c1ccc(/C=C/C(=O)c2ccc(F)cc2)cc1 | > 64 | > 64 | > 64 | > 64 | > 64 | > 64 | > 64 | > 64 | – | – | – | –
O=C1NC(=S)S/C1=C/c1ccc(/C=C/C(=O)c2ccccc2Cl)cc1 | > 64 | > 64 | > 64 | > 64 | > 64 | > 64 | > 64 | > 64 | – | – | – | –
O=C1NC(=S)S/C1=C/c1ccc(/C=C/C(=O)c2cccc(Cl)c2)cc1 | > 64 | > 64 | > 64 | > 64 | > 64 | > 64 | > 64 | > 64 | – | – | – | –
O=C1NC(=S)S/C1=C/c1ccc(/C=C/C(=O)c2ccc(Cl)cc2)cc1 | > 64 | > 64 | > 64 | > 64 | > 64 | > 64 | > 64 | > 64 | – | – | – | –
O=Cc1ccc(OCc2ccccc2)cc1 | > 64 | > 64 | > 64 | > 64 | > 64 | > 64 | > 64 | > 64 | – | – | – | –
CCn1cc(C(=O)O)c(=O)c2cc(F)c(N3CCNCC3)cc21 [NORFLOXACIN] | 4 (≈ 12.5 µM) | 2 (≈ 6.26 µM) | 2 (≈ 6.26 µM) | 16 (≈ 50.1 µM) | 8 (≈ 25.1 µM) | 4 (≈ 12.5 µM) | > 64 | > 64 | – | – | – | –
Cc1onc(-c2ccccc2)c1C(=O)N[C@@H]1C(=O)N2[C@@H]1SC(C)(C)[C@@H]2C(=O)O [OXACILLIN] | 1 (≈ 2.49 µM) | 1 (≈ 2.49 µM) | 1 (≈ 2.49 µM) | > 64 | > 64 | > 64 | 1 (≈ 2.49 µM) | 1 (≈ 2.49 µM) | – | – | – | –
